Molecules are shown by their SMILES.

Assay type in all cases: cell-based
Experiment [1] has as its target EphA2 (Homo sapiens, UniProt P29317). Kind of experiment: EphA2 activation in HEK 293-A2 cells (pEphA/B immunoblot). Further details: expressed in transfected cells. How it is done:
Cells were plated in 24-well dishes at a density of 100,000 cells/well and grown for 24 hours prior to stimulation with appropriate compounds and ephrins for the given amounts of time. Compounds were prepared in DMSO at 500 times the final concentrations and 0.2% DMSO was used as vehicle control. Following treatment, cells were lysed directly in SDS Gel Loading Buffer and immunoblotted as described previously. Immunoprecipitation and immunofluorescence staining was performed as described. For immunoprecipitation, 300,000 cells/well were plated in 6-well dishes and lysed in modified RIPA Buffer (20 mM Tris-HCl pH 7.4, 20 mM NaF, 150 mM NaCl, 10% glycerol, 0.1% SDS, 0.5% DCA, 2 mM EDTA, 1% Triton X-100) following treatment. Either 10 μg of ephrin-A1-Fc, or […] of EphA2 mouse monoclonal antibody (Clone D7, Millipore) were used, and mouse IgG was used as a negative control for EphA2 IP.
To determine whether the EphA2 agonist activity of doxazosin is cell-context specific, we evaluated the effects of doxazosin on additional cell types. We first utilized HEK 293 cells overexpressing EphA2 (HEK 293-A2) that we described previously. […] Next we tested PC-3 cells that express high levels of endogenous EphA2 receptor. […] We next evaluated the time-course of activation in both MDA-231-A2 and HEK 293-A2 cells upon treatment with a single 50 μM dose of doxazosin.

Experiment [2] addresses T1, EphB3 (Homo sapiens, UniProt P54753).
T1 construct: expressed in transfected cells; host or cells: HEK 293
T1 sequence (P54753 34-998): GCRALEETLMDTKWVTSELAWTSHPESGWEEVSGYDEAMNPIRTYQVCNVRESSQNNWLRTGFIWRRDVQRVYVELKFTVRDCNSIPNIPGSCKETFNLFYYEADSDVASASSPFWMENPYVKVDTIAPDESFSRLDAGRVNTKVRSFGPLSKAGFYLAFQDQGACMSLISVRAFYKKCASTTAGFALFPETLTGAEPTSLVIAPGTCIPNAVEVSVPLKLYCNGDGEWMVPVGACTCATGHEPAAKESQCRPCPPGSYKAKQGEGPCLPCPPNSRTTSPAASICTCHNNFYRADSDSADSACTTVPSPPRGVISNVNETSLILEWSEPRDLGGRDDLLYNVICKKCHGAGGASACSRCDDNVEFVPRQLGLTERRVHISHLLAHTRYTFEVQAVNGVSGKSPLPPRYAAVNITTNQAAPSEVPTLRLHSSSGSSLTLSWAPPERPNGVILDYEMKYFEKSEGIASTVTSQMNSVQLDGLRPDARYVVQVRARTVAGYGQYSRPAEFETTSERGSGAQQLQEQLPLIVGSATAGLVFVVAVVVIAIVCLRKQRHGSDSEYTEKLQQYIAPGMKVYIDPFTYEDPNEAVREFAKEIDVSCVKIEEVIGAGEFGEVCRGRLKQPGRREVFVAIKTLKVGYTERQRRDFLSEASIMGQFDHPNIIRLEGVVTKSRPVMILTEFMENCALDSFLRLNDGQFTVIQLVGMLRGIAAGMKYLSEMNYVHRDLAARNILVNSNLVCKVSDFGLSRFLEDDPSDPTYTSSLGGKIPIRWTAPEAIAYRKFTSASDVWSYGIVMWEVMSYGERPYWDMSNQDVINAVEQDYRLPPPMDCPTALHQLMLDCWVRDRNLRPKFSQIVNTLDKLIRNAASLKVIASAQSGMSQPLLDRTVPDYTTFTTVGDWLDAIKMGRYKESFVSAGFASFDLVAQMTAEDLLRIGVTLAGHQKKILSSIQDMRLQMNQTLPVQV
Kind of experiment: EphB3 activation in HEK 293 cells overexpressing EphB3. As to conditions: HEK 293 overexpressing EphB3, high basal activation.
Method: (§1) Cells were plated in 24-well dishes at a density of 100,000 cells/well and grown for 24 hours prior to stimulation with appropriate compounds and ephrins for the given amounts of time. Compounds were prepared in DMSO at 500 times the final concentrations and 0.2% DMSO was used as vehicle control. Following treatment, cells were lysed directly in SDS Gel Loading Buffer and immunoblotted as described previously. […] For immunoprecipitation, 300,000 cells/well were plated in 6-well dishes and lysed in modified RIPA Buffer (20 mM Tris-HCl pH 7.4, 20 mM NaF, 150 mM NaCl, 10% glycerol, 0.1% SDS, 0.5% DCA, 2 mM EDTA, 1% Triton X-100) following treatment. Either 10 μg of ephrin-A1-Fc, or 4 mg of EphA2 mouse monoclonal antibody (Clone D7, Millipore) were used, and mouse IgG was used as a negative control for EphA2 IP. […] For this purpose, HEK 293 cell lines overexpressing EphA1, EphA2, EphA3, EphA4, and EphB3 kinases were utilized.

In experiment [3] the target is T2, EphA1 (Homo sapiens, UniProt P21709).
T2 construct: expressed in transfected cells; host or cells: HEK 293
T2 sequence (P21709 26-976): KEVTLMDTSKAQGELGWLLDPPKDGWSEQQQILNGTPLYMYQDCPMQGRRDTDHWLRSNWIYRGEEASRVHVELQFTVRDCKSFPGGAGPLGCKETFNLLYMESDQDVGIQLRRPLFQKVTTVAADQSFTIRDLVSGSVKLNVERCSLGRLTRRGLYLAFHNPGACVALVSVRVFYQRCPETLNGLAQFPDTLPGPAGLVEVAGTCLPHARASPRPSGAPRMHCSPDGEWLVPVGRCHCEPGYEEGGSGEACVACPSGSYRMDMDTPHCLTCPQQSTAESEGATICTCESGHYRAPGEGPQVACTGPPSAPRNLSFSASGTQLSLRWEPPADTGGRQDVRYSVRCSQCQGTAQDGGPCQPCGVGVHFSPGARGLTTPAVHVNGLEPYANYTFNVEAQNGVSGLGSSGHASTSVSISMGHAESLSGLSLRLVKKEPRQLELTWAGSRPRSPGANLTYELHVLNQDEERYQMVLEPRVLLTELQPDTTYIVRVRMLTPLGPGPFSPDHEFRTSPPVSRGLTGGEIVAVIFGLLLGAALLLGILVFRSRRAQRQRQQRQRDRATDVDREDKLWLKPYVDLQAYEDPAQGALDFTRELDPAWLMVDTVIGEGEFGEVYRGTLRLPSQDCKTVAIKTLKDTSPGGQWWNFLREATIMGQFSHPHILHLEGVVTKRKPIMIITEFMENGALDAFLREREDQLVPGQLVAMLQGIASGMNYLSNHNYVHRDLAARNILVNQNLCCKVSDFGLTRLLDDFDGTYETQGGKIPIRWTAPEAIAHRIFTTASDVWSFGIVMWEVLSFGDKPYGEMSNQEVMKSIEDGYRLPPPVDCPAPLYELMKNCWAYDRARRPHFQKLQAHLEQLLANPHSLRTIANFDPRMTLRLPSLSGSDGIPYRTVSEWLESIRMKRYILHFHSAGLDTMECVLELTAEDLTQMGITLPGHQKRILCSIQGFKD
Kind of experiment: EphA1 activation in HEK 293 cells overexpressing EphA1. As to conditions: HEK 293 overexpressing EphA1, same concentrations.
Method: as §1

Sequence of EphA2 (P29317 24-976): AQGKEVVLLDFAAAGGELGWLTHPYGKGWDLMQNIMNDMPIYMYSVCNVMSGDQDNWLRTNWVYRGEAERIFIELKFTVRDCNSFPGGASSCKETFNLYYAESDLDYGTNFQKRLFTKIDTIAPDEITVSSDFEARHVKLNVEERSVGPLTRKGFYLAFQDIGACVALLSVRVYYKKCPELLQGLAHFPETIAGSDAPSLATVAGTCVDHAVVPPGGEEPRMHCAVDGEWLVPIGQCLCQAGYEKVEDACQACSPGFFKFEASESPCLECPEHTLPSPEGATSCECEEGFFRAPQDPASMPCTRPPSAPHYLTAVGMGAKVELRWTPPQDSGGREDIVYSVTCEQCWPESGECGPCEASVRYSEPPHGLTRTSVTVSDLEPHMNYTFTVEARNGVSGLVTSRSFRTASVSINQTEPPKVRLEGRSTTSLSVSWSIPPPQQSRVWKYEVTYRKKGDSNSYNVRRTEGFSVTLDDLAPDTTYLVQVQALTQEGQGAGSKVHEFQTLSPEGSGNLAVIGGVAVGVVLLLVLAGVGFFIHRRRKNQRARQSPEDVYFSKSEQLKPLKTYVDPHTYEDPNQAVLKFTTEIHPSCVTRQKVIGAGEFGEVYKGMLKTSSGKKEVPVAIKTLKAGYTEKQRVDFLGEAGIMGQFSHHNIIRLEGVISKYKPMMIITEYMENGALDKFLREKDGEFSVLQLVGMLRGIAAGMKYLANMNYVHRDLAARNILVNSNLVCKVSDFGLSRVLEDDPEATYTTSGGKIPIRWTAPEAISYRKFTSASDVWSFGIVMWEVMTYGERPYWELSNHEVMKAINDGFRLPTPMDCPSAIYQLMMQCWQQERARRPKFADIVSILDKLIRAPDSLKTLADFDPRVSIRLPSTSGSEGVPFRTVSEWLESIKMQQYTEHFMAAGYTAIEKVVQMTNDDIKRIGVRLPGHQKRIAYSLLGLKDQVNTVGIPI

As for `COc1cc2nc(N3CCN(C(=O)C4COc5ccccc5O4)CC3)nc(N)c2cc1OC` (centres unmarked) [Doxazosin, 2-[4-(2,3-Dihydro-1,4-benzodioxine-2-carbonyl)piperazin-1-yl]-6,7-dimethoxyquinazolin-4-amine], the “concentration at which EphA2 activation starts” value in experiment [1] (HEK 293-A2 cells, 30 minutes) amounted to 25 µM. In experiment [1] (HEK 293-A2 cells, single 50 μM dose), the “time at which EphA2 activation becomes evident” value is recorded as 10 min. In addition, the EphA2 kinase activation result in experiment [1] (HEK 293 overexpressing EphA2, 60 minutes) is “activated both EphA2 and EphA4 kinases following a similar dose-response relationship”. Further, the EphB3 activation entry in experiment [2] was “notable decrease in EphB3 activation”. Further, in experiment [3], the EphA1 activation entry was “no activation of EphA1”.

Values taken from patent publication US11944624B2, “Peptide and small molecule agonists of EphA and their uses” (CASE WESTERN RESERVE UNIVERSITY, priority 2017, dated 2024).
